Where a name gives a salt, the structure may show the parent alone. Read-outs that look alike come from different tables or passages of the source. Marks after values point to notes of the source that are not given here.
What was measured:
[1] = cited from earlier work
[2] = Pharmacoscintigraphy regional absorption biostudy with Enterion site-specific delivery capsule, topiramate plasma concentrations; format: in vivo, human; settings: for Relative Bioavailability (%) Based on AUCinf: 200 mg topiramate API, Enterion capsule, healthy volunteers; for Relative Bioavailability (%) Based on AUCinf / Relative Bioavailability (%) Based on AUClast: vs Trt A; for Lambda / tmax / Relative Bioavailability (%) Based on AUClast / AUCinf / Cmax / half-life / AUC(0-inf) / AUC(0-t): 200 mg; for half-life: read-out: t½ (converted)
Description: A rational approach to obtain detailed information about how well topiramate is absorbed from the key residence areas of the gastrointestinal tract was conducted using the Enterion® site-specific delivery capsule, which is the subject of U.S. Pat. No. 6,632,216 which is incorporated herein by reference. The Enterion® site-specific delivery capsule is an easy to use non-invasive methodology for assessing regional drug absorption from the gastrointestinal tract. The capsule is 35mm in length and 10-12 mm in diameter and is capable of delivering solutions, suspensions or powders to specific sites. […] The capsules contain a drug chamber with a wide port, and therefore loading of all types of drug formulations into the capsule is relatively straightforward. Capsule activation is confirmed by means of a signal, which is emitted from the capsule when activation occurs and is relayed back to the activation unit.
A pharmacoscintigraphy study of topiramate was conducted at Pharmaceutical Profiles, Nottingham, UK utilizing their Enterion® site-specific delivery capsule technology. This study was designed to obtain detailed information about how well topiramate is absorbed from the key residence areas of the gastrointestinal tract. The examples below are a result of a biostudy that was a randomized, 4-treatment, 4-period study, conducted in 12 healthy volunteers. The test treatments administered using an Enterion® capsule and were as follows: Trt B represents 200 mg topiramate API delivered to the proximal small bowel (PSB), Trt C represents 200 mg topiramate API delivered to the distal small bowel (DSB), Trt D represents 200 mg topiramate API delivered to the colon. The reference treatment administered was Trt A which represents 200 mg topiramate as the commercial immediate release reference formulation, Topamax™. Topiramate plasma concentrations were measured in this study.
Analysis of plasma samples for topiramate was carried out in accordance with Bioanalytical Services Test Method number TM154. The method involves solid phase extraction of topiramate using Oasis HLB extraction cartridges. Topiramate is analysed using LC-MS/MS.
The standard curves for the analytical runs in the study covered the concentration range of 10-1000 ng/mL with a limit of quantitation of 10 ng/mL. All samples were diluted 1:10 prior to analysis.
The following parameters were derived from the plasma concentration data: individual and mean blood drug concentration levels, individual and mean peak levels, Cmax; individual and mean AUClast and AUCinf; individual and mean time to peak concentration, tmax, relative bioavailability of test compared to alternative formulation, Frel (%).

[3] = cited from earlier work; remark: listed apart in the source
[4] = Trt B, proximal small bowel (PSB)
[5] = Trt B, proximal small bowel (PSB), plasma
[6] = Trt C, distal small bowel (DSB)
[7] = human, plasma, Trt B, proximal small bowel (PSB)
[8] = human, plasma, Trt C, distal small bowel (DSB)
[9] = human, plasma, other: Enterion capsule, delivered to the colon, Trt D, colon, plasma

CC(C)(N)Cc1ccccc1 [Phentermine hydrochloride, 1,1 -Dimethyl-2-phenethylamine hydrochloride]
solubility ([1]; in chloroform): slightly soluble
solubility ([1]; in ether): insoluble
solubility ([1]; in water and lower alcohols): soluble

CC1(C)O[C@@H]2[C@@H](CO[C@@]3(COS(N)(=O)=O)OC(C)(C)O[C@@H]23)O1 [Topiramate, topiramate]
Relative Bioavailability (%) Based on AUCinf [2, 4]: 120.88 ± 20.20 %
Lambda [2, 4]: 0.02 ± 0.01˜ h^−1
tmax [2, 4]: 2.08 ± 1.08 h
Relative Bioavailability (%) Based on AUClast [2, 4]: 113.06 ± 19.46 %
AUCinf [2, 5]: 192140.44 ± 33798.87˜ ng/mL · h
Cmax [2, 5]: 5255.66 ± 1870.32 ng/mL
Relative Bioavailability (%) Based on AUCinf [2, 6]: 120.99 ± 25.31$ %
Lambda [2, 6]: 0.03 ± 0.01 h⁻¹
tmax [2, 6]: 3.64 ± 4.20 h
Relative Bioavailability (%) Based on AUClast [2, 6]: 125.69 ± 27.18˜ %
AUCinf ([2]; Trt C, distal small bowel (DSB), plasma): 193203.21 ± 57012.26 ng·h/mL
Relative Bioavailability (%) Based on AUCinf ([2]; Trt D, colon): 111.85 ± 19.41^ %
Lambda ([2]; Trt D, colon): 0.03 ± 0.01* h^−1
tmax ([2]; Trt D, colon): 11.85 ± 7.44 h
Relative Bioavailability (%) Based on AUClast ([2]; Trt D, colon): 107.14 ± 22.73˜ %
AUCinf ([2]; Trt D, colon, plasma): 181462.53 ± 46104.28 ng·h/mL
Cmax ([2]; Trt D, colon, plasma): 3878.07 ± 1267.71 ng/mL
enhanced bioavailability ([2]; administered in the small or large intestine as compared to oral immediate release tablets): approximately 20%
Cmax ([2]; human, plasma, Trt B, proximal small bowel (PSB), plasma, read-out: Cmax): 5260 ± 1870 ng/mL
tmax ([2]; human, plasma, Trt B, proximal small bowel (PSB), read-out: tmax): 2.1 ± 1.1 h
half-life [2, 7]: 32.7 ± 9.7 h
AUC(0-inf) [2, 7]: 192 ± 33.8 µg·h/mL
AUC(0-t) [2, 7]: 150 ± 37.9 µg·h/mL
Cmax ([2]; human, plasma, Trt C, distal small bowel (DSB), plasma, read-out: Cmax): 4970 ± 1200 ng/mL
tmax ([2]; human, plasma, Trt C, distal small bowel (DSB), read-out: tmax): 3.6 ± 4.2 h
half-life [2, 8]: 24.5 ± 6.18 h
AUC(0-inf) [2, 8]: 193 ± 57 µg·h/mL
AUC(0-t) [2, 8]: 160 ± 38.5 µg·h/mL
AUC(0-inf) [2, 9]: 181 ± 46.1 µg·h/mL
AUC(0-t) [2, 9]: 140 ± 40.7 µg·h/mL
Cmax ([2]; human, plasma, other: Enterion capsule, delivered to the colon, Trt D, colon, plasma, read-out: Cmax): 3880 ± 1270 ng/mL
tmax ([2]; human, plasma, other: Enterion capsule, delivered to the colon, Trt D, colon, read-out: tmax): 11.8 ± 7.4 h
half-life ([2]; human, plasma, other: Enterion capsule, delivered to the colon, Trt D, colon): 24.9 ± 5.2 h
metabolized in the liver ([3]; P-450 microsomal enzyme system): 15%
time to peak blood levels ([3]; following a 400 mg oral dose): about 2 hours
Plasma protein binding ([3]; in vivo): approximately 15%
excreted unchanged in the urine ([3]; in vivo): about 85%
bioavailability ([3]; oral administration): ~100%
